# Laboratory results published in PubChem BioAssay (NCI).
#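 Protocol summary: plate cells (96-well), add compound at 5 concentrations, incubate 48 h, interpolate endpoints linearly. TGI is the concentration that stops growth completely.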
# Key:
# Test in all cases: NCI tumour cell line growth inhibition, 48 h
# EKVX NSCLC = system: EKVX NSCLC
# CAKI-1 renal = system: CAKI-1 renal
# NCI-H460 lung = system: NCI-H460 lung
# PC-3 prostate = system: PC-3 prostate
# SR leukemia = system: SR leukemia
# COLO 205 colon = system: COLO 205 colon
# UACC-62 melanoma = system: UACC-62 melanoma
# SW-620 colon = system: SW-620 colon
# SNB-19 CNS = system: SNB-19 CNS
# KM12 colon = system: KM12 colon
# SN12C renal = system: SN12C renal
# MALME-3M melanoma = system: MALME-3M melanoma
# MDA-MB-435 = system: MDA-MB-435
# ACHN renal = system: ACHN renal
# A549 NSCLC = system: A549 NSCLC
# OVCAR-4 ovarian = system: OVCAR-4 ovarian
# SK-MEL-2 melanoma = system: SK-MEL-2 melanoma
# SK-MEL-5 melanoma = system: SK-MEL-5 melanoma
# HS 578T breast = system: HS 578T breast
# DU-145 prostate = system: DU-145 prostate
# OVCAR-5 ovarian = system: OVCAR-5 ovarian
# OVCAR-3 ovarian = system: OVCAR-3 ovarian
# LOX IMVI melanoma = system: LOX IMVI melanoma
# SF-268 CNS = system: SF-268 CNS
# SK-MEL-28 melanoma = system: SK-MEL-28 melanoma
# NCI/ADR-RES ovarian = system: NCI/ADR-RES ovarian
# HOP-92 NSCLC = system: HOP-92 NSCLC
# NCI-H522 lung = system: NCI-H522 lung
# IGROV1 ovarian = system: IGROV1 ovarian
# RXF 393 renal = system: RXF 393 renal
# HCT-116 colon = system: HCT-116 colon
# 786-0 renal = system: 786-0 renal
# HL-60(TB) leukemia = system: HL-60(TB) leukemia
# HT29 colon = system: HT29 colon
# MDA-MB-231 breast = system: MDA-MB-231 breast
# K-562 leukemia = system: K-562 leukemia
# MDA-N = system: MDA-N
# HOP-62 NSCLC = system: HOP-62 NSCLC
# NCI-H226 lung = system: NCI-H226 lung
# A498 renal = system: A498 renal
# HCC-2998 colon = system: HCC-2998 colon
# M14 melanoma = system: M14 melanoma
# UO-31 renal = system: UO-31 renal
# SF-539 CNS = system: SF-539 CNS
# U251 CNS = system: U251 CNS
# CCRF-CEM leukemia = system: CCRF-CEM leukemia
# SF-295 CNS = system: SF-295 CNS
# MOLT-4 leukemia = system: MOLT-4 leukemia
# OVCAR-8 ovarian = system: OVCAR-8 ovarian
# HCT-15 colon = system: HCT-15 colon
# RPMI-8226 leukemia = system: RPMI-8226 leukemia
# UACC-257 melanoma = system: UACC-257 melanoma
# SK-OV-3 ovarian = system: SK-OV-3 ovarian
# NCI-H23 lung = system: NCI-H23 lung
# TK-10 renal = system: TK-10 renal
# T-47D breast = system: T-47D breast
# SNB-75 CNS = system: SNB-75 CNS
# MCF7 breast = system: MCF7 breast
smiles,measurement,setting,value
N#C/C(C(=O)Nc1ccccc1)=C(/N)N1CCCC1,TGI,EKVX NSCLC,> 100 µM
same,TGI,CAKI-1 renal,> 100 µM
same,TGI,NCI-H460 lung,> 100 µM
same,TGI,PC-3 prostate,> 100 µM
same,TGI,SR leukemia,> 100 µM
same,TGI,COLO 205 colon,> 100 µM
same,TGI,UACC-62 melanoma,> 100 µM
same,TGI,SW-620 colon,> 100 µM
same,TGI,SNB-19 CNS,> 100 µM
same,TGI,KM12 colon,> 100 µM
same,TGI,SN12C renal,> 100 µM
same,TGI,MALME-3M melanoma,> 100 µM
same,TGI,MDA-MB-435,> 100 µM
same,TGI,ACHN renal,> 100 µM
same,TGI,A549 NSCLC,> 100 µM
same,TGI,OVCAR-4 ovarian,> 100 µM
same,TGI,SK-MEL-2 melanoma,> 100 µM
same,TGI,SK-MEL-5 melanoma,> 100 µM
same,TGI,HS 578T breast,> 100 µM
same,TGI,DU-145 prostate,> 100 µM
same,TGI,OVCAR-5 ovarian,> 100 µM
same,TGI,OVCAR-3 ovarian,> 100 µM
same,TGI,LOX IMVI melanoma,> 100 µM
same,TGI,SF-268 CNS,> 100 µM
same,TGI,SK-MEL-28 melanoma,> 100 µM
same,TGI,NCI/ADR-RES ovarian,> 100 µM
same,TGI,HOP-92 NSCLC,> 100 µM
same,TGI,NCI-H522 lung,> 100 µM
same,TGI,IGROV1 ovarian,> 100 µM
same,TGI,RXF 393 renal,> 100 µM
same,TGI,HCT-116 colon,> 100 µM
same,TGI,786-0 renal,> 100 µM
same,TGI,HL-60(TB) leukemia,> 100 µM
same,TGI,HT29 colon,> 100 µM
same,TGI,MDA-MB-231 breast,> 100 µM
same,TGI,K-562 leukemia,> 100 µM
same,TGI,MDA-N,> 100 µM
same,TGI,HOP-62 NSCLC,> 100 µM
same,TGI,NCI-H226 lung,> 100 µM
same,TGI,A498 renal,> 100 µM
same,TGI,HCC-2998 colon,> 100 µM
same,TGI,M14 melanoma,> 100 µM
same,TGI,UO-31 renal,> 100 µM
same,TGI,SF-539 CNS,> 100 µM
same,TGI,U251 CNS,> 100 µM
same,TGI,CCRF-CEM leukemia,> 100 µM
same,TGI,SF-295 CNS,> 100 µM
same,TGI,MOLT-4 leukemia,> 100 µM
same,TGI,OVCAR-8 ovarian,> 100 µM
same,TGI,HCT-15 colon,> 100 µM
same,TGI,RPMI-8226 leukemia,> 100 µM
same,TGI,UACC-257 melanoma,> 100 µM
same,TGI,SK-OV-3 ovarian,> 100 µM
same,TGI,NCI-H23 lung,> 100 µM
same,TGI,TK-10 renal,> 100 µM
same,TGI,T-47D breast,> 100 µM
CC1CN=C(N(Cc2ccc(F)cc2)C(=O)Nc2ccc(Cl)cc2)S1 (stereo not drawn),TGI,EKVX NSCLC,69.2 µM
same,TGI,CAKI-1 renal,> 100 µM
same,TGI,NCI-H460 lung,> 100 µM
same,TGI,PC-3 prostate,> 100 µM
same,TGI,SR leukemia,> 100 µM
same,TGI,COLO 205 colon,> 100 µM
same,TGI,SW-620 colon,> 100 µM
same,TGI,SNB-75 CNS,> 100 µM
same,TGI,SNB-19 CNS,> 100 µM
same,TGI,KM12 colon,> 100 µM
same,TGI,SN12C renal,> 100 µM
same,TGI,MALME-3M melanoma,> 100 µM
same,TGI,ACHN renal,> 100 µM
same,TGI,A549 NSCLC,> 100 µM
same,TGI,OVCAR-4 ovarian,> 100 µM
same,TGI,SK-MEL-2 melanoma,37.5 µM
same,TGI,SK-MEL-5 melanoma,29.4 µM
same,TGI,HS 578T breast,> 100 µM
same,TGI,MCF7 breast,64 µM
same,TGI,DU-145 prostate,> 100 µM
same,TGI,OVCAR-5 ovarian,> 100 µM
same,TGI,OVCAR-3 ovarian,> 100 µM
same,TGI,LOX IMVI melanoma,54.5 µM
same,TGI,SF-268 CNS,> 100 µM
same,TGI,SK-MEL-28 melanoma,71.7 µM
same,TGI,NCI/ADR-RES ovarian,> 100 µM
same,TGI,IGROV1 ovarian,> 100 µM
same,TGI,HCT-116 colon,> 100 µM
same,TGI,786-0 renal,> 100 µM
same,TGI,HL-60(TB) leukemia,91 µM
same,TGI,HT29 colon,65.8 µM
same,TGI,MDA-MB-231 breast,> 100 µM
same,TGI,K-562 leukemia,> 100 µM
same,TGI,MDA-N,61.1 µM
same,TGI,HOP-62 NSCLC,> 100 µM
same,TGI,A498 renal,67.4 µM
same,TGI,HCC-2998 colon,76.6 µM
same,TGI,M14 melanoma,17.4 µM
same,TGI,UO-31 renal,> 100 µM
same,TGI,SF-539 CNS,> 100 µM
same,TGI,U251 CNS,> 100 µM
same,TGI,CCRF-CEM leukemia,> 100 µM
same,TGI,SF-295 CNS,> 100 µM
same,TGI,MOLT-4 leukemia,> 100 µM
same,TGI,OVCAR-8 ovarian,> 100 µM
same,TGI,HCT-15 colon,> 100 µM
same,TGI,RPMI-8226 leukemia,> 100 µM
same,TGI,UACC-257 melanoma,> 100 µM
same,TGI,SK-OV-3 ovarian,> 100 µM
same,TGI,NCI-H23 lung,> 100 µM
same,TGI,TK-10 renal,> 100 µM
same,TGI,T-47D breast,> 100 µM
CN(NC(=O)/C(=C/c1ccc(Cl)cc1)NC(=O)c1ccccc1)c1cn[nH]c(=O)c1Cl,TGI,EKVX NSCLC,> 100 µM
same,TGI,CAKI-1 renal,> 100 µM
same,TGI,NCI-H460 lung,> 100 µM
same,TGI,PC-3 prostate,> 100 µM
same,TGI,SR leukemia,> 100 µM
same,TGI,COLO 205 colon,> 100 µM
same,TGI,UACC-62 melanoma,> 100 µM
same,TGI,SW-620 colon,> 100 µM
same,TGI,SNB-75 CNS,> 100 µM
same,TGI,SNB-19 CNS,> 100 µM
same,TGI,KM12 colon,> 100 µM
same,TGI,SN12C renal,> 100 µM
same,TGI,MALME-3M melanoma,> 100 µM
same,TGI,MDA-MB-435,> 100 µM
same,TGI,ACHN renal,> 100 µM
same,TGI,A549 NSCLC,> 100 µM
same,TGI,OVCAR-4 ovarian,> 100 µM
same,TGI,SK-MEL-2 melanoma,> 100 µM
same,TGI,SK-MEL-5 melanoma,> 100 µM
same,TGI,HS 578T breast,> 100 µM
same,TGI,MCF7 breast,> 100 µM
same,TGI,DU-145 prostate,> 100 µM
same,TGI,OVCAR-5 ovarian,> 100 µM
same,TGI,OVCAR-3 ovarian,> 100 µM
same,TGI,LOX IMVI melanoma,> 100 µM
same,TGI,SF-268 CNS,> 100 µM
same,TGI,SK-MEL-28 melanoma,> 100 µM
same,TGI,NCI/ADR-RES ovarian,> 100 µM
same,TGI,HOP-92 NSCLC,> 100 µM
same,TGI,NCI-H522 lung,56.6 µM
same,TGI,IGROV1 ovarian,> 100 µM
same,TGI,RXF 393 renal,> 100 µM
same,TGI,HCT-116 colon,> 100 µM
same,TGI,786-0 renal,> 100 µM
same,TGI,HL-60(TB) leukemia,41.6 µM
same,TGI,HT29 colon,> 100 µM
same,TGI,MDA-MB-231 breast,> 100 µM
same,TGI,K-562 leukemia,> 100 µM
same,TGI,MDA-N,> 100 µM
same,TGI,HOP-62 NSCLC,> 100 µM
same,TGI,NCI-H226 lung,> 100 µM
same,TGI,M14 melanoma,> 100 µM
same,TGI,UO-31 renal,> 100 µM
same,TGI,SF-539 CNS,> 100 µM
same,TGI,U251 CNS,> 100 µM
same,TGI,CCRF-CEM leukemia,> 100 µM
same,TGI,SF-295 CNS,> 100 µM
same,TGI,MOLT-4 leukemia,84.2 µM
same,TGI,OVCAR-8 ovarian,> 100 µM
same,TGI,HCT-15 colon,> 100 µM
same,TGI,RPMI-8226 leukemia,53.5 µM
same,TGI,UACC-257 melanoma,> 100 µM
same,TGI,SK-OV-3 ovarian,> 100 µM
same,TGI,NCI-H23 lung,> 100 µM
same,TGI,TK-10 renal,> 100 µM
